In one assay the test system is rats. Details: method as in McGregor et al., 1996. As to conditions: acute injection of 0.1 mg/kg, ref McGregor et al., 1996; cited from earlier work.
The test system of assay [1] is CD1 female mouse brain lipidome. In words: Brain-region lipid levels (HPLC/MS/MS lipidomics) 2 h after single i.p. 3 mg/kg CP 55,940 vs vehicle. Format: in vivo. As for the experimental part: The Bloomington Institutional Animal Care and Use Committee of Indiana University reviewed and approved the animal procedures. Female mice from the CD1 strain were utilized to match our study examining THC’s effects on the brain lipidome ([Leishman et al., 2018]). Mice were given a single i.p. injection of either 3 mg/kg CP or 1:1:18 cremophor:ethanol:saline vehicle (please refer to the section “3 mg/kg CP Is Relevant for Synthetic Cannabinoid Abuse and Has Stronger Effects on the Female Mouse Brain Lipidome During Adolescence” for a justification of dose and use of female mice). Three different age groups were given injections: PND 35 and PND 50 adolescents, and adult mice (PND 113). At least eight mice in each age group received CP and at least eight received vehicle. Matching the THC study time course ([Leishman et al., 2018]), mice were sacrificed via rapid decapitation 2 h after injection. Brains were immediately removed and flash-frozen in liquid nitrogen, and then stored at -80°C until dissections were performed. Brains were dissected on an ice-cold dissection plate into the following regions: STR, HIPP, CER, THAL, CTX, HYP, MID, and STEM. These abbreviations for these brain areas will be used exclusively when discussing the results generated by these specific dissections. Each dissected area was immediately placed in liquid nitrogen and then stored at -80°C until used for lipid extraction.
Tissue extracts were performed as previously described ([Bradshaw et al., 2006]; [Stuart et al., 2013]; [Raboune et al., 2014]; [Leishman et al., 2016a],[b], [2017], [2018]). First, samples were shock frozen in liquid nitrogen, weighed, and transferred to a centrifuge tube. The mass of the largest sample was multiplied by 50 to determine how many milliliters of HPLC-grade methanol (Fisher, Fair Lawn, NJ, United States) to add. Then, samples were spiked with 500 pmol deuterium-labeled NAGly (d8NAGly; Cayman Chemical, Ann Arbor, MI, United States). Samples were placed on ice in darkness for 2 h then individually homogenized and centrifuged at 19,000 × g for 20 min at 20°C. Supernatants were diluted with HPLC water (purified in house) to make a solution of 75% water, 25% supernatant. Lipids were partially purified on C18 solid phase extraction columns (Agilent, Palo Alto, CA, United States). A series of four elutions with 1.5 mL of 60%, 75%, 85%, and 100% methanol were collected ([Stuart et al., 2013]; [Leishman et al., 2016a],[b], [2018]).
As previously described ([Bradshaw et al., 2006]; [Tan et al., 2006]; [Smoum et al., 2010]; [Stuart et al., 2013]; [Tortoriello et al., 2013]; [Raboune et al., 2014]; [Leishman et al., 2016a],[b], [2017], [2018]), samples were analyzed using an Applied Biosystems API 3000 triple quadrupole mass spectrometer with electrospray ionization (Foster City, CA, United States). Using an Agilent XDB-C18 reversed phase analytical column and optimized mobile phase gradients, 20 μL from each elution were chromatographed. Two Shimadzu 10ADvp pumps (Columbia, MD, United States) provided the pressure for gradient elution. Mobile phase A: 20% methanol, 80% water (v/v) and 1 mM ammonium acetate (Sigma, St. Louis, MO, United States). Mobile phase B: 100% methanol, 1 mM ammonium acetate. Every method run began with 0% mobile phase B, reached 100% mobile phase B flowing at 0.2 mL/min, and gradually returned to 0% mobile phase B.
This screening library will be referred to as the lipidome when discussing data from this study. HPLC/MS/MS data were analyzed using Analyst software (Applied Biosystems) ([Bradshaw et al., 2006]; [Tan et al., 2006]; [Stuart et al., 2013]; [Tortoriello et al., 2013]; [Raboune et al., 2014]; [Leishman et al., 2016a],[b], [2017], [2018]). Chromatograms (Supplementary Figure 3) were generated by determining the retention time of analytes from the analytical column with a [M-1] or [M+1] parent peak and a fragmentation peak corresponding to the programmed values. […]

Take `CCCCCCC(C)(C)c1ccc([C@@H]2C[C@H](O)CC[C@H]2CCCO)c(O)c1` [CP 55,940]: the “duration of anorexic effects” value in the assay on rats is given as “up to 24 h”. The “PGF2α level, Mean” value in assay [1] (adult cortex, 3mg/kg CP 55,940) amounted to 2.77E-10; in assay [1] (adult female mice, brainstem, 3mg/kg CP 55,940), 1.69E-10; in assay [1] (adult hypothalamus, 3 mg/kg CP 55,940), 2.18E-10; in assay [1] (adult midbrain, 3mg/kg CP 55,940), 2.91E-10; in assay [1] (brainstem, PND 50, 3 mg/kg CP 55,940), 1.26E-10; in assay [1] (cerebellum, WT adult female mice, 3mg/kg CP 55,940), 2.22E-10. For the same compound, the “PGF2α level, Mean” value in assay [1] (cerebellum, PND35 WT female mice, 3mg/kg CP 55,940) stood at 3.05E-10; in assay [1] (cortex, PND 50 female mice, 3mg/kg CP 55,940), 1.71E-10; in assay [1] (cortex, PND 35 adolescent female mice, 3 mg/kg CP 55,940), 3.11E-10; in assay [1] (hippocampus, adult, 3 mg/kg CP 55,940), 3.25E-10; in assay [1] (hippocampus, PND 35 WT female mice, 3mg/kg CP 55,940), 9.18E-10; in assay [1] (hypothalamus, PND 50 female mice, 3mg/kg CP 55,940), 1.35E-10. The “PGF2α level, Mean” value in assay [1] (midbrain, PND 50 female mice, 3mg/kg CP 55,940) is listed as 1.57E-10; in assay [1] (striatum, adult, 3 mg/kg CP 55,940) it was 2.43E-10; in assay [1] (thalamus, WT adult female mice, 3mg/kg CP 55,940) it was 2.22E-10; in assay [1] (thalamus, PND 35 adolescent female mice, 3 mg/kg CP 55,940), 5.11E-10.

These data come from PMC6277767, “Broad and Region-Specific Impacts of the Synthetic Cannabinoid CP 55,940 in Adolescent and Adult Female Mouse Brains” (Frontiers in Molecular Neuroscience, 2018).
